Series [1] is described as follows: Pharmacokinetics in Sprague-Dawley rats (single IV or oral dose). Format: in vivo, rat. The note with it: rat, blood, Sprague-Dawley rats, single 5 mg/kg intravenous dose. The source says: For comparison purposes, a reference compound was separately characterized according to its pharmacokinetics properties except AUC in a similar manner. The reference compound (“Reference Compound 1”) was the compound of Example 188 of PCT International Patent Application Publication number WO 02/064572 A1, which is also described in PCT International Patent Application Publication number WO 02/064080 A2 in Table IVb on page 76, 5th species from the top. […] Reference Compound 1 is named 4-[6-(4-methoxy-benzylcarbamoyl)- 1 -methyl-2,4-dioxo- 1,4-dihydro-2H-pyrido[3,4-d]pyrimidin-3-ylmethyl]-benzoic acid, and has the structure drawn below: [drawing 98]

Another series concerns the target MMP-13 catalytic domain (Homo sapiens, UniProt P45452). Kind of series: Thiopeptolide substrate hydrolysis inhibition assay, MMP-13 catalytic domain. It counts as biochemical. An excerpt: The methods described below for the inhibition of MMP-13 may also be adapted and used to determine the ability of the compounds of Formula I to inhibit other matrix metalloproteases such as MMP-1, MMP-2, MMP-3, MMP-7, MMP-8, MMP-9, MMP-12, MMP-14, MMP-17, and the like.
Thiopeptolide substrates show virtually no decomposition or hydrolysis at or below neutral pH in the absence of a matrix metalloproteinase enzyme. A typical thiopeptolide substrate commonly utilized for assays is Ac-Pro-Leu-Gly-thioester-Leu-Leu-Gly-OEt. A 100 μL assay mixture will contain 50 mM of N-2-hydroxyethylpiperazine-N′-2-ethanesulfonic acid buffer (“HEPES,” pH 7.0), 10 mM CaCl2, 100 μM thiopeptolide substrate, and 1 mM 5,5′-dithio-bis-(2-nitro-benzoic acid) (DTNB). […] Assays are carried out with and without matrix metalloproteinase inhibitor compounds, and the amount of hydrolysis is compared for a determination of inhibitory activity of the test compounds.

In the next series the target is T1, MMP-3 catalytic domain (Homo sapiens, UniProt P08254).
T1 construct: MMP-1 full-length, MMP-3 catalytic domain, MMP-7 full-length
T1 sequence (P08254 100-272 limits assumed): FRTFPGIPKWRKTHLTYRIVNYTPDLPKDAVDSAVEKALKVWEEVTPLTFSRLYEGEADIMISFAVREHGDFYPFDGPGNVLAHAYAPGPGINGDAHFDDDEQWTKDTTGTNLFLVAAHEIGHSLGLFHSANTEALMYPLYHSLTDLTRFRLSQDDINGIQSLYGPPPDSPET
Briefly: Thiopeptolide substrate hydrolysis inhibition assay, MMP-3 catalytic domain. Format: biochemical. As to conditions: MES buffer pH 6.0, read-out: MMP-3CD IC50. The source says: (§1) The assay methods of Biological Examples 1-4 measure the amount by which a test compound reduces the hydrolysis of a thiopeptolide substrate catalyzed by a matrix metalloproteinase enzyme or catalytic domain thereof. It has been shown previously by Ye Qi-Zhuang, Hupe D., and Johnson L. (Current Medicinal Chemistry, 1996;3:407-418) that inhibitor activity against a catalytic domain of an MMP is predictive of the inhibitor activity against the respective full-length MMP enzyme. The methods described below for the inhibition of MMP-13 may also be adapted and used to determine the ability of the compounds of Formula I to inhibit other matrix metalloproteases such as MMP-1, MMP-2, MMP-3, MMP-7, MMP-8, MMP-9, MMP-12, MMP-14, MMP-17, and the like.
(§2) Thiopeptolide substrates show virtually no decomposition or hydrolysis at or below neutral pH in the absence of a matrix metalloproteinase enzyme. A typical thiopeptolide substrate commonly utilized for assays is Ac-Pro-Leu-Gly-thioester-Leu-Leu-Gly-OEt. A 100 μL assay mixture will contain 50 mM of N-2-hydroxyethylpiperazine-N′-2-ethanesulfonic acid buffer (“HEPES,” pH 7.0), 10 mM CaCl2, 100 μM thiopeptolide substrate, and 1 mM 5,5′-dithio-bis-(2-nitro-benzoic acid) (DTNB). […] The change in absorbance at 405 nm is monitored on a Thermo Max microplate reader (molecular Devices, Menlo Park, Calif.) at room temperature (22° C.). The calculation of the amount of hydrolysis of the thiopeptolide substrate is based on E412=13600 M^−1 cm^−1 for the DTNB-derived product 3-carboxy-4-nitrothiophenoxide. Assays are carried out with and without matrix metalloproteinase inhibitor compounds, and the amount of hydrolysis is compared for a determination of inhibitory activity of the test compounds.
(§3) Test compounds were evaluated at various concentrations in order to determine their respective IC50 values, the micromolar concentration of compound required to cause a 50% inhibition of catalytic activity of the respective enzyme.
It should be appreciated that the assay buffer used with MMP-3CD was 50 mM N-morpholinoethane sulfonate (“MES”) at pH 6.0 rather than the HEPES buffer at pH 7.0 described above.
(§4) Some representative compounds of Formula I have been evaluated for their ability to inhibit MMP-13, MMP-1FL, MMP-3CD, MMP-7FL, MMP-8FL, MMP-9FL, MMP-12CD, MMP-14CD, and/or MMP-17CD, wherein FL means full-length enzyme and CD means a catalytic domain of the full-length enzyme. Test compounds can be evaluated at various concentrations in order to determine their respective IC50 values, the micromolar concentration of compound required to cause a 50% inhibition of the hydrolytic activity of the respective enzyme.
(§5) Certain compounds of Formula I have also been assayed with MMP-1 full-length, MMP-3 catalytic domain, MMP-7 full-length, MMP-8 full-length, MMP-9 full-length, MMP-12 catalytic domain, MMP-14 catalytic domain, and MMP-17 catalytic domain. […] In Biological Table 2, the compound example numbers for the Compound Examples are indicated in the column labelled “Ex. No.”

The target of a further series is T2, MMP-12 catalytic domain (Homo sapiens, UniProt P39900).
T2 construct: MMP-9 full-length, MMP-12 catalytic domain, MMP-14 catalytic domain
T2 sequence (P39900 106-263 limits assumed): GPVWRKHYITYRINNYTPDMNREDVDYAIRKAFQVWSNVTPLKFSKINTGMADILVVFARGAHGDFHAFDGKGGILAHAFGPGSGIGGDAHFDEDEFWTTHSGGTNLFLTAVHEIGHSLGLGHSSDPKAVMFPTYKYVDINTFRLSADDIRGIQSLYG
Briefly: Thiopeptolide substrate hydrolysis inhibition assay, MMP-12 catalytic domain. It counts as biochemical. The note with it: read-out: MMP-12CD IC50.
Excerpt: as §1, §2, §3, §4, §5

Another series addresses T3, MMP-14 catalytic domain (Homo sapiens, UniProt P50281).
T3 construct: MMP-14 catalytic domain, and MMP-17 catalytic domain
Briefly: Thiopeptolide substrate hydrolysis inhibition assay, MMP-14 catalytic domain. It counts as biochemical. The note with it: read-out: MMP-14CD IC50.
Excerpt: as §1, §2, §3, §4, §5

A further series concerns the target T4, MMP-17 catalytic domain (Homo sapiens, UniProt Q9ULZ9).
T4 construct: MMP-14 catalytic domain, and MMP-17 catalytic domain
T4 sequence (Q9ULZ9 126-295 limits assumed): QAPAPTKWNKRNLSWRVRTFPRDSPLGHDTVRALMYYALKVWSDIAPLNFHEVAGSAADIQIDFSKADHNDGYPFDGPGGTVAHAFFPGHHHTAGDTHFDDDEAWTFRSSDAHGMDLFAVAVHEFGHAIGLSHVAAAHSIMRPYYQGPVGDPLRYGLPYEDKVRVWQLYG
Kind of series: Thiopeptolide substrate hydrolysis inhibition assay, MMP-17 catalytic domain. Format: biochemical. As to conditions: read-out: MMP-17 CD IC50.
Excerpt: as §1, §2, §3, §4, §5

Where two headings read alike, the source gives them in different places. A value given as a limit tells only on which side of the number the result lay.

For the compound `COc1ccc(CNC(=O)c2cc3c(=O)n(Cc4ccc(C(=O)O)cc4)c(=O)n(C)c3cn2)cc1` [Reference Compound 1, 4-[6-(4-methoxy-benzylcarbamoyl)-1-methyl-2,4-dioxo-1,4-dihydro-2H-pyrido[3,4-d]pyrimidin-3-ylmethyl]-benzoic acid, reference compound], the clearance in series [1] (read-out: IV CL) was 48.9 mL/min/kg. In addition, the half-life in series [1] (read-out: IV T1/2 (converted)) is 36 min.
For orientation: IC50 means the concentration that inhibits the measured activity by half. Regarding `O=C(O)c1ccc(Cn2cnc3cnc(C(=O)NCc4ccccc4)cc3c2=O)cc1` [Compound Example 9], the IC50 is 0.02 µM at MMP-13 catalytic domain; > 30 µM at MMP-3 catalytic domain; > 30 µM on MMP-12 catalytic domain; > 100 µM on MMP-14 catalytic domain; > 100 µM on MMP-17 catalytic domain.
For the compound `CSc1ccc(CNC(=O)c2cc3c(=O)n(Cc4ccc(C(=O)O)cc4)cnc3cn2)cc1` [Compound Example 7, 4-[6-(4-methylsulfanyl-benzylcarbamoyl)-4-oxo-4H-pyrido[3,4-d]pyrimidin-3-ylmethyl]-benzoic acid], the IC50 is 0.011 µM at MMP-13 catalytic domain; > 10 µM on MMP-3 catalytic domain; 14 µM on MMP-12 catalytic domain; > 30 µM on MMP-14 catalytic domain; > 100 µM on MMP-17 catalytic domain.
For `COc1cc(CNC(=O)c2cc3c(=O)n(Cc4ccc(C(=O)O)cc4)cnc3cn2)ccn1` [Compound Example 6, 4-{6-[(2-methoxy-pyridin-4-ylmethyl)-carbamoyl]-4-oxo-4H-pyrido [3,4-d]pyrimidin-3-ylmethyl}-benzoic acid], the IC50 was 17 µM on MMP-3 catalytic domain, > 100 µM on MMP-12 catalytic domain, > 100 µM at MMP-14 catalytic domain and > 100 µM at MMP-17 catalytic domain.
As to `O=C(O)c1ccc(Cn2cnc3cnc(C(=O)NCc4ccncc4)cc3c2=O)cc1` [Compound Example 5, 4-{4-oxo-6-[(pyridin-4-ylmethyl)-carbamoyl]-4H-pyrido[3,4-d]pyrimidin-3-ylmethyl}-benzoic acid], the IC50 was 0.005 µM at MMP-13 catalytic domain (MMP-13 catalytic domain, read-out: MMP-13CD IC50); 81 µM on MMP-3 catalytic domain; > 100 µM on MMP-12 catalytic domain; > 100 µM at MMP-14 catalytic domain; > 100 µM at MMP-17 catalytic domain.
Take `O=C(O)c1ccc(Cn2cnc3cnc(C(=O)NCc4ccc(F)cc4)cc3c2=O)cc1` [Compound Example 8, 4-[6-(4-fluoro-benzylcarbamoyl)-4-oxo-4H-pyrido[3,4-d]pyrimidin-3-ylmethyl]-benzoic acid]: the IC50 against MMP-13 catalytic domain was 0.0043 µM; at MMP-3 catalytic domain it was 33 µM; at MMP-12 catalytic domain, > 30 µM; at MMP-14 catalytic domain, > 100 µM; on MMP-17 catalytic domain, > 100 µM.

Source of the values: patent US20050085447A1, “Pyrido[3,4-d]pyrimidine derivatives as matrix metalloproteinase-13 inhibitors” (Warner-Lambert Company LLC, priority 2003, published 2005).
